Experimental data reported in patent US5929076A, “Cycloalkyl substituted imidazoles” (SmithKline Beecham Corporation, priority 1998, dated 1999).

System: human PGHS-2 protein expression in LPS stimulated human monocytes
Assay: Prostoglandin endoperoxide synthase-2 (PGHS-2) assay
Format: cell-based
Settings: rank order potency similar to that for inhibiting cytokine production
Procedure: The following assay describes a method for determining the inhibitory effects of compounds of Formula (I) on human PGHS-2 protein expression in LPS stimulated human monocytes. Method: Human peripheral blood monocytes were isolated from buffy coats by centrifugation through Ficoll and Percoll gradients. Cells were seeded at 2×10^6 /well in 24 well plates and allowed to adhere for 1 hour in RPMI supplemented with 1% human AB serum, 20 mM L-glutamine, Penicillin-Streptomycin and 10 mM HEPES. Compounds were added at various concentrations and incubated at 37° C. for 10 minutes. LPS was added at 50 ng/well (to induce enzyme expression) and incubated overnight at 37° C. The supernatant was removed and cells washed once in cold PBS. The cells were lysed in 100 μl of cold lysis buffer(50 mM Tris/HCl pH 7.5, 150 mM NaCl, 1% NP40, 0.5% sodium deoxycholate, 0.1% SDS, 300 ug/ml DNAse, 0.1% TRITON X-100, 1 mM PMSF, 1 mM leupeptin, 1 mM pepstatin). The lysate was centrifuged (10,000×g for 10 min. at 4° C.) to remove debris and the soluble fraction was subjected to SDS PAGE. analysis (12% gel). Protein separated on the gel were transferred onto nitrocellulose membrane by electrophoretic means for 2 hours at 60 volts. The membrane was pretreated for one hour in PBS/0.1% Tween 20 with 5% non-fat dry milk. […]

SMILES	inhibition of LPS induced PGHS-2 protein expression
Fc1ccc(-c2nc3n(c2-c2ccncc2)CCS3)cc1 [6-(4-Fluorophenyl)-2,3-dihydro-5-(4-pyridinyl)imidazo[2,1-b]thiazole]	active
C[C@@H]1C[C@H]2[C@@H]3CCC4=CC(=O)C=C[C@]4(C)[C@@]3(F)[C@@H](O)C[C@]2(C)[C@@]1(O)C(=O)CO [Dexamethasone]	active
